# Measurements taken from ChEMBL document CHEMBL3804815, “Aloperine and Its Derivatives as a New Class of HIV-1 Entry Inhibitors” (ACS Med Chem Lett, 2016).
# Calls of active or inactive are those of the source. No cut-off for these calls is given here.
# Assays:
# [1] = tested on: Human immunodeficiency virus 1; assay: Antiviral activity against HIV1 NL4-3 infected in human MT4 cells assessed as reduction in viral replication measured on day 3 post infection by Nano-Glo luciferase reporter gene assay; assay type: functional, organism-based; settings: Human immunodeficiency virus 1, NL4-3, MT4, 72 h
# [2] = Cytotoxicity against human MT4 cells assessed as reduction in cell viability after 3 days by CellTiter-Glo luminescent assay; assay type: cell-based
# [3] = Inhibition of HIV1 NL4-3 Env-induced cell-cell fusion between viral envelope expressing African green monkey COS cells to CXCR4 receptor expressing human TZM-bl cells after overnight incubation by Bright-Glo luciferase assay; assay type: cell-based; settings: Human immunodeficiency virus 1, NL4-3, COS
# [4] = tested on: Human immunodeficiency virus 1; assay: Antiviral activity against HIV1 NL4-3 assessed as inhibition of early phase viral infection in human MT4 cells; assay type: functional, organism-based
# [5] = Inhibition of HIV1 YU2 gp120-induced cell-cell fusion between viral envelope expressing African green monkey COS cells to CCR5 receptor expressing human TZM-bl cells after overnight incubation by Bright-Glo luciferase assay; assay type: cell-based, Human immunodeficiency virus type 1 (isolate YU2); settings: Human immunodeficiency virus 1, COS
# COS [6] = assay: Inhibition of HIV1 8X gp120-induced cell-cell fusion between viral envelope expressing African green monkey COS cells and human TZM-bl cells at 0.001 to 10 uM after overnight incubation by Bright-Glo luciferase assay; assay type: cell-based; settings: Human immunodeficiency virus 1
# COS [7] = assay: Inhibition of BMS-806 resistant HIV1 YU2 gp120 T198P mutant-induced cell-cell fusion between viral envelope expressing African green monkey COS cells to CCR5 receptor expressing human TZM-bl cells at 0.001 to 10 uM after overnight incubation by Bright-Glo luciferase assay; assay type: cell-based; settings: Human immunodeficiency virus type 1 (isolate YU2)
# [8] = tested on: Human immunodeficiency virus 1; assay: Antiviral activity against HIV1 NL4-3 assessed as inhibition of viral infection in human MT4 cells treated 2 hrs post infection; assay type: functional, organism-based
# [9] = tested on: Human immunodeficiency virus 1; assay: Antiviral activity against pseudotype HIV1 BJOX2000 harboring HIV1 subtype CRF07_BC Env assessed as inhibition of viral infection in human TZM-bl cells measured 2 days post infection by luciferase reporter gene assay; assay type: functional, organism-based; settings: Human immunodeficiency virus 1, BJOX2000, TZM-bl, 48 h
# [10] = tested on: Human immunodeficiency virus 1; assay: Antiviral activity against pseudotype HIV1 TRO11 harboring HIV1 subtype B Env assessed as inhibition of viral infection in human TZM-bl cells measured 2 days post infection by luciferase reporter gene assay; assay type: functional, organism-based; settings: Human immunodeficiency virus 1, TRO11, TZM-bl, 48 h
# [11] = tested on: Human immunodeficiency virus 1; assay: Antiviral activity against pseudotype HIV1 CH119 harboring HIV1 subtype CRF07_BC Env assessed as inhibition of viral infection in human TZM-bl cells measured 2 days post infection by luciferase reporter gene assay; assay type: functional, organism-based; settings: Human immunodeficiency virus 1, CH119, TZM-bl, 48 h
# [12] = Cytotoxicity against human TZM-bl cells at 20 uM; assay type: cell-based
# [13] = tested on: Human immunodeficiency virus 1; assay: Antiviral activity against pseudotype HIV1 CE0217 harboring HIV1 subtype C Env assessed as inhibition of viral infection in human TZM-bl cells measured 2 days post infection by luciferase reporter gene assay; assay type: functional, organism-based; settings: Human immunodeficiency virus 1, CE0217, TZM-bl, 48 h
# [14] = tested on: Human immunodeficiency virus 1; assay: Antiviral activity against pseudotype HIV1 X1632 harboring HIV1 subtype G Env assessed as inhibition of viral infection in human TZM-bl cells measured 2 days post infection by luciferase reporter gene assay; assay type: functional, organism-based; settings: Human immunodeficiency virus 1, X1632, TZM-bl, 48 h
# COS [15] = assay: Inhibition of HIV1 NL4-3 Env-induced cell-cell fusion between viral envelope expressing African green monkey COS cells to CXCR4 receptor expressing human TZM-bl cells at 0.01 to 10 uM after overnight incubation by Bright-Glo luciferase assay; assay type: cell-based; settings: Human immunodeficiency virus 1
# [16] = tested on: Human immunodeficiency virus 1; assay: Effect on binding of HIV1 3B gp120 to CD4-IgG2 at 1 to 10 ug/ml by ELISA
# [17] = tested on: Human immunodeficiency virus 1; assay: Antiviral activity against pseudotype HIV1 CE1176 harboring HIV1 subtype C Env assessed as inhibition of viral infection in human TZM-bl cells measured 2 days post infection by luciferase reporter gene assay; assay type: functional, organism-based; settings: Human immunodeficiency virus 1, CE1176, TZM-bl, 48 h
# [18] = tested on: Human immunodeficiency virus 1; assay: Antiviral activity against pseudotype HIV1 25710 harboring HIV1 subtype C Env assessed as inhibition of viral infection in human TZM-bl cells measured 2 days post infection by luciferase reporter gene assay; assay type: functional, organism-based; settings: Human immunodeficiency virus 1, 25710, TZM-bl, 48 h
# [19] = tested on: Human immunodeficiency virus 1; assay: Antiviral activity against pseudotype HIV1 CNE55 harboring HIV1 subtype CRF01_AE Env assessed as inhibition of viral infection in human TZM-bl cells measured 2 days post infection by luciferase reporter gene assay; assay type: functional, organism-based; settings: Human immunodeficiency virus 1, CNE55, TZM-bl, 48 h
Compound,EC50 [1],CC50 at 72 h [2],also measured
C1=C2CCCN(CCCCNCc3ccccc3)[C@H]2[C@@H]2C[C@H]1[C@H]1CCCCN1C2,0.96 µM,28.6 µM,
C1=C2CCCN[C@H]2[C@@H]2C[C@H]1[C@H]1CCCCN1C2,1.75 µM,> 86.2 µM,EC50 [3]: 1.2 µM; inhibition [4]: Active; EC50 [5]: 1.6 µM; inhibition (COS [6]): Active; inhibition (COS [7]): Active; inhibition [8]: inactive
O=C(NCCCCN1CCCC2=C[C@H]3C[C@H](CN4CCCC[C@H]34)[C@@H]21)c1cccc(OC(F)(F)F)c1,3.89 µM,> 40.7 µM,
NCCN1CCCC2=C[C@H]3C[C@H](CN4CCCC[C@H]34)[C@@H]21,> 10 µM,> 73 µM,
O=C(/C=C/c1ccc(OC(F)(F)F)cc1)NCCCCCN1CCCC2=C[C@H]3C[C@H](CN4CCCC[C@H]34)[C@@H]21,2.39 µM,6.36 µM,
O=C(NCCCCN1CCCC2=C[C@H]3C[C@H](CN4CCCC[C@H]34)[C@@H]21)c1ccc(C(F)(F)F)cc1,0.69 µM,> 42.1 µM,
NCCCN1CCCC2=C[C@H]3C[C@H](CN4CCCC[C@H]34)[C@@H]21,> 10 µM,> 69.4 µM,
O=C(NCCCN1CCCC2=C[C@H]3C[C@H](CN4CCCC[C@H]34)[C@@H]21)c1ccc(OC(F)(F)F)cc1,> 10 µM,> 41.9 µM,
O=C(/C=C/c1ccc2c(c1)OCO2)NCCCN1CCCC2=C[C@H]3C[C@H](CN4CCCC[C@H]34)[C@@H]21,7.98 µM,> 43.2 µM,
FC(F)(F)Oc1ccc(CNCCCCN2CCCC3=C[C@H]4C[C@H](CN5CCCC[C@H]45)[C@@H]32)cc1,4.2 µM,6.2 µM,
O=C(Cc1ccc(OC(F)(F)F)cc1)NCCCCCN1CCCC2=C[C@H]3C[C@H](CN4CCCC[C@H]34)[C@@H]21,4.21 µM,17.5 µM,
O=C(Cc1ccc(OC(F)(F)F)cc1)NCCCCN1CCCC2=C[C@H]3C[C@H](CN4CCCC[C@H]34)[C@@H]21,0.75 µM,23 µM,EC50 [9]: 2.8 µM; EC50 [10]: 1.6 µM; EC50 [11]: 0.9 µM; Activity [12]: Non-toxic; EC50 [13]: 1.4 µM; EC50 [14]: 2.5 µM; inhibition (COS [15]): Active; Activity [16]: inactive; EC50 [17]: 2.2 µM; EC50 [18]: 2.1 µM; EC50 [19]: 4.3 µM
O=C(NCCCCN1CCCC2=C[C@H]3C[C@H](CN4CCCC[C@H]34)[C@@H]21)c1ccc(OC(F)(F)F)cc1,1.12 µM,34.6 µM,
O=C(NCCCCN1CCCC2=C[C@H]3C[C@H](CN4CCCC[C@H]34)[C@@H]21)c1ccc(F)cc1,> 10 µM,> 47.1 µM,
O=C(NCCCCN1CCCC2=C[C@H]3C[C@H](CN4CCCC[C@H]34)[C@@H]21)c1ccc(OC(F)(F)F)cc1F,3.14 µM,> 39.3 µM,
COc1ccc(C(=O)NCCCCN2CCCC3=C[C@H]4C[C@H](CN5CCCC[C@H]45)[C@@H]32)cc1,8.13 µM,> 45.8 µM,
O=C(Cc1ccc(OC(F)(F)F)cc1)NCCCN1CCCC2=C[C@H]3C[C@H](CN4CCCC[C@H]34)[C@@H]21,7.68 µM,> 40.7 µM,
NCCCCCN1CCCC2=C[C@H]3C[C@H](CN4CCCC[C@H]34)[C@@H]21,5.38 µM,> 63.1 µM,
NCCCCCCN1CCCC2=C[C@H]3C[C@H](CN4CCCC[C@H]34)[C@@H]21,> 10 µM,> 60.4 µM,
